Test results as given in patent US7615361B2, “Toxicity screening methods” (Ceetox, Inc., priority 2006, dated 2009).
Where two headings read alike, the source gives them in different places.

Assays:
HUVEC = assay: Membrane lipid peroxidation (8-isoprostane ELISA); conditions: 24 HR
Protocol: (§1) Lipid Peroxidation Measured as 8-Isoprostane (8-ISO): 8-ISO levels were determined using an ELISA. 8-ISO is a member of a family of eicosanoids produced non-enzymatically by random oxidation of tissue phospholipids by oxygen radicals. Therefore, an increase in 8-ISO is an indirect measure of increased lipid peroxidation (Vacchiano and Tempel, 1994). At the end of the exposure period, plates were either analyzed immediately or stored at −80° C. until needed for analysis. Color development, which is […] to the amount of 8-ISO present in the sample, was read on a Packard Fusion or equivalent plate reader at 415 nm.
(§2) Lipid Peroxidation Measured as 8-Isoprostane (8-ISO): Background absorbance produced from Ellman's reagent is subtracted from all wells. Non-specific binding is subtracted from the maximum binding wells to give a corrected maximum binding expressed as Bo. The percent of bound (B) relative to maximum binding capacity (Bo) for all unknown samples and for standards was determined an expressed as (% B/Bo). The % B/Bo for standards was plotted against the log of 8-ISO added to yield the final standard curve. This curve was used to convert % B/Bo to pg 8-ISO/mL of sample.
(§3) The test compound consisted of two parts mixed in a constant ratio of 5:1. The final test mixture consisted of Test mix 1 and Test mix 2, which were received as frozen solutions. The test mixture was tested in a ratio of 5:1 COMP A in five different cell types which included the following: SK-MEL28, human hepatocytes, HUVEC, C32, and NHEM cells. Cells were seeded into 96-well plates and cultured in medium containing 10% bovine serum. Following an equilibration period of 48 hr, the cells were treated with the test compound mix at concentrations of COMP A (μg/mL)=(250:50), (125:25), (25:12.5), (12.5:2.5), (2.5:1.25), (1.25:0.25), and (0.25:0.05) for 24 hr (overnight) at 37° C. in 5% CO2. […] Following an equilibration period of 4 hr, the cells were treated with the test compound mix at concentrations of COMP A (μg/mL)=(250:50), (125:25), (25:12.5), (12.5:2.5), (2.5:1.25), (1.25:0.25), and (0.25:0.05) for 24 hr (overnight) at 37° C. in 5% CO2.
(§4) Experimental Protocol: The test compounds were shipped on dry ice for testing. The compounds were stored frozen at −80° C. until needed. Dosing solutions were prepared in complete culture medium. SK-MEL28, human hepatocytes, HUVEC, C32, and NHEM cells were used as the test systems. Cells were seeded into 96-well plates and allowed to equilibrate for approximately 48 hr. Following the equilibration period the cells were exposed to the test compound mix at concentrations of COMP A (μg/mL)=(250:50), (125:25), (25:12.5), (12.5:2.5), (2.5:1.25), (1.25:0.25), and (0.25:0.05). Solubility was determined by Nephalometry techniques immediately after dosing and prior to harvesting the cells at 24 hr. Following the exposure period, the cells or their supernatant (culture medium) were analyzed for changes in cell proliferation, membrane leakage, mitochondrial function, oxidative stress, and apoptosis. The resultant exposure concentration response curves were graphed and analyzed for determining the concentration that produced a half maximal response or TC50.

NHEM cells = assay: Membrane lipid peroxidation (8-isoprostane ELISA); conditions: 24 HR
Protocol: as §1, §2, §3, §4

human hepatocytes = assay: Membrane lipid peroxidation (8-isoprostane ELISA); conditions: 24 HR
Protocol: as §1, §2, §3, §4

C32 cells = assay: Membrane lipid peroxidation (8-isoprostane ELISA); conditions: C32, 24 HR
Protocol: as §1, §2, §3, §4

P-glycoprotein (PgP) = P-glycoprotein (PgP) (Homo sapiens, UniProt P08183); assay: P-glycoprotein (PgP) binding: MTT with and without cyclosporin A, human hepatocytes; type: cell-based; parameters: SK-MEL28, human hepatocytes, HUVEC, C32, and NHEM cells were used as the test systems; endogenous in cells; conditions: for % Control (Compound + CSA) / % Control (Compound): human hepatocytes 24 HR, MTT; for % Control (Compound + CSA): with cyclosporin A; for % Control (Compound): without CSA; for % Difference: human hepatocytes, 24 HR
Protocol: P-glycoprotein (PgP) transport proteins are expressed in the bile canalicular membrane of normal liver. However, in neoplastic cells it is not uncommon to have expression of this transporter system in the plasma membrane. The H4IIE cells have a very active efflux pump activity in the plasma membrane. As a result, compounds that are substrates for this transporter may not accumulate inside the cell. The existence of these transporters was evaluated with the Calcein-AM assay and with known substrates of PgP. […] Therefore, compounds that show negative toxicity should be evaluated as potential substrates of PgP and compared to data shown in the PgP table of this example.
The cell supernatant or the cells themselves were harvested for biochemical analysis. General cytotoxicity was evaluated by monitoring membrane integrity, mitochondrial function, cell proliferation, oxidative stress, and apoptosis. In addition to monitoring biochemical changes essential for cell health, interaction with P-glycoprotein (PgP) and solubility were also assessed. The means of each exposure group (n=3-7) were calculated for each assay performed. Intra assay variation well to well was typically less than 10% with plate to plate variation typically less than 20%.

Intracellular ATP levels = type: cell-based; conditions: read-out: ATP TC50; for CC50 at 72 h: SK-MEL28, 72 HR, run #2
Protocol: Intracellular ATP Levels: Cellular Adenosine triphosphate (ATP) was determined with an assay based on a reaction between ATP+D-luciferin+oxygen catalyzed by luciferase to yield Oxyluciferin+AMP+PPi+CO2+light. The emitted light is proportional to the amount of ATP present. […] In addition, a unique cell lysis reagent inhibits endogenous ATPases and therefore stabilizes cellular ATP by preventing its degradation to ADP. ATP is present in all-living cells and declines rapidly upon cell death. In addition, this assay in combination with the MTT assay provides an indicator of mitochondrial activity and energy status of the cell.
Plates were analyzed immediately or stored at −20° C. until needed. On the day of analysis, the plates were thawed and calibration curve prepared with ATP in the same liquid matrix as samples. ATP was quantified by adding ATP substrate solution and then reading luminescence on a Packard Fusion Luminescence or equivalent plate reader.
Intracellular ATP Levels: ATP levels in treated cells could be determined by using the regression coefficients obtained from the linear regression analysis of the calibration curve. Thus, values could be expressed as pmoles ATP/million cells. Background corrected luminescence was used to determine percent change relative to controls by dividing treated values by control values and multiplying by 100.
Dosing solutions were prepared in complete culture medium.

Chain of P-glycoprotein (PgP) (P08183 whole entry): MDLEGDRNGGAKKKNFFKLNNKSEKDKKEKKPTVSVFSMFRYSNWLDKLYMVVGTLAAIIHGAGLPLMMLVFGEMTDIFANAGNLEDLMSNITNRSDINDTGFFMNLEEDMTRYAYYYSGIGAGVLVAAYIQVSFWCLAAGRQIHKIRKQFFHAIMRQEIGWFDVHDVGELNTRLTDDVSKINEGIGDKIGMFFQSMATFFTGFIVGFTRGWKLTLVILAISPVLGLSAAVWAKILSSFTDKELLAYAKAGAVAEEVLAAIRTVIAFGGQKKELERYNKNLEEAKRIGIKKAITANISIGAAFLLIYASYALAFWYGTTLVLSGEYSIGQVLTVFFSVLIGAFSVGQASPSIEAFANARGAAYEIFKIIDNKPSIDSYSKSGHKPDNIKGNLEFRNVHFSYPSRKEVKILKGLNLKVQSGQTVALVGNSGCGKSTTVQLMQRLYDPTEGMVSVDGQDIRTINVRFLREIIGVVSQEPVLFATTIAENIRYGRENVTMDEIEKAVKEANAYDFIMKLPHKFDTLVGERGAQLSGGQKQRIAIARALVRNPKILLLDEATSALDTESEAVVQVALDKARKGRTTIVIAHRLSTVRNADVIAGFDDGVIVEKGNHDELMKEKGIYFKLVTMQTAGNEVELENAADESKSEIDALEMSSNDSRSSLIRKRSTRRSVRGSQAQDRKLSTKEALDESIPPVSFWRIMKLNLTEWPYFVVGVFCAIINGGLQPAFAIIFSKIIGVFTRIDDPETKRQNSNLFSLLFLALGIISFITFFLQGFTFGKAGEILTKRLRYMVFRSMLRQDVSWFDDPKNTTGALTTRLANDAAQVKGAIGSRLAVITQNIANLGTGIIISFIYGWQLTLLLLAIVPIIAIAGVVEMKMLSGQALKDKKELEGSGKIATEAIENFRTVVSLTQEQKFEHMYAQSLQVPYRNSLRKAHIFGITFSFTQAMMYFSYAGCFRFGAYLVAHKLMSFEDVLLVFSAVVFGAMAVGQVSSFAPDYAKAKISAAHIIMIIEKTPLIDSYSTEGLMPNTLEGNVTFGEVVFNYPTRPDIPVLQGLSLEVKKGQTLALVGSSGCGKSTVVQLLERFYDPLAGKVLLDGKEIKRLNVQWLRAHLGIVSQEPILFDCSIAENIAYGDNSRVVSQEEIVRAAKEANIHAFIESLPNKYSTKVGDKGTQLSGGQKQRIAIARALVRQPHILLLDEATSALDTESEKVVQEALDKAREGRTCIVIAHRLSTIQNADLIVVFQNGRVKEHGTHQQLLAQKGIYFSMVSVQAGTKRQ

CC[C@@]1(O)C(=O)OCc2c1cc1n(c2=O)Cc2cc3ccccc3nc2-1 [CAMPTOTHECIN, Camptothecin]
Membrane Lipid Peroxidation (HUVEC): 2 (2 = Concentration related increase with maximum values ≧15 pg/mL)
Membrane Lipid Peroxidation (NHEM cells): 1 (1 = Modest increase with maximum values ≦15 pg/mL)
Membrane Lipid Peroxidation (human hepatocytes): 1 (1 = Modest increase with maximum values ≦15 pg/mL)
Membrane Lipid Peroxidation (C32 cells): 0
% Control (Compound + CSA) (P-glycoprotein (PgP)): 65.8%
% Control (Compound) (P-glycoprotein (PgP)): 88.5%
% Difference (P-glycoprotein (PgP)): 25.7%
CC50 at 24 h (Intracellular ATP levels; human, HUVEC): 40 µM
CC50 at 24 h (Intracellular ATP levels; human, SK-MEL28 cells, SK-MEL28, 24 HR): 293 µM
CC50 at 72 h (Intracellular ATP levels; human, SK-MEL28 cells): 0.1 µM

C=C(C)[C@H]1Cc2c(ccc3c2O[C@@H]2COc4cc(OC)c(OC)cc4[C@@H]2C3=O)O1 [ROTENONE, Rotenone]
Membrane Lipid Peroxidation (HUVEC): 1 (1 = Modest increase with maximum values ≦15 pg/mL)
Membrane Lipid Peroxidation (NHEM cells): 2 (2 = Concentration related increase with maximum values ≧15 pg/mL)
Membrane Lipid Peroxidation (human hepatocytes): 0
Membrane Lipid Peroxidation (C32 cells): 0
% Control (Compound + CSA) (P-glycoprotein (PgP)): 60.9%
% Control (Compound) (P-glycoprotein (PgP)): 97.1%
% Difference (P-glycoprotein (PgP)): 37.2%
CC50 at 24 h (Intracellular ATP levels; human hepatocytes): 6 µM
CC50 at 72 h (Intracellular ATP levels; human, SK-MEL28 cells): 2 µM
